The values below come from patent US8257725B2, “Delivery of highly lipophilic agents via medical devices” (Abbott Laboratories, priority 1997, dated 2012).

Series [1] in a line: Pharmacokinetics after single intravenous dose in cynomolgus monkey. The following applies: single 2.5 mg/kg intravenous dose.
The nature of series [2]: Octanol/water partition coefficient, shake-flask method. The class given is physicochemical. Particulars: for transfer coefficient (P divided by S), order: FIG. 21, S = equilibrium aqueous solubility (μg/ml); for lipophilicity (partition coefficient octanol/water): n-octanol/buffered water. As to the method:
“Solubility” is based on a standard measure used in medicinal chemistry. The octanol-water partition coefficient (P) is the ratio of distribution of a compound in a mixture of 1-octanol and H2O. LogP is the base 10 logarithm of the partition coefficient.
In the measurement of the partition coefficient (octanol/water), preliminary studies were conducted to determine the optimum drug concentration for each test, and the appropriate time for establishing the partition equilibrium. All experiments were carried out by two different analysts and on multiple drug lots.
A transfer coefficient, τ, can be defined as P divided by S, where P equals the partition coefficient and S equals theequilibrium aqueous solubility, (μg/ml) as shown in FIG. 21. […] Where S equals the equilibrium aqueous solubility of the amorphous form of the drug were possible.

Series [3] is described as follows: Aqueous solubility, shake-flask method. Particulars: amorphous DES drugs; dexamethasone crystalline.
For series [4] the following is noted: representative summary for suitable beneficial agents; cited from earlier work.
Series [5] is described as follows: Six-hour elution from PC1036-coated coupons in pH 7.4 phosphate buffered saline. The series is classed as physicochemical. The following applies: for amount released from the coupon: after six hours, PBS pH 7.4, 37° C.; for amount remaining on the coupon: six-hour elution. As to the method:
Prior to any experimentation, coated stainless steel coupons were prepared. These coupons were 316L electropolished stainless steel discs (10 mm diameter). This size was chosen because the surface area of one side of the coupon is similar to the surface area of a 15-mm open cell BiodivYsio stent. […]. The cleaning was a two-step process in which the coupons are sonicated for 3 minutes in dichloromethylene and 3 minutes in ethanol. The coupons were allowed to dry at room temperature. One side of the coupon was coated using a filtered 20-mg/mL solution of phosphoryl choline polymer PC1036 (product of Biocompatibles Ltd., Famham, Surrey, UK) in ethanol. Twenty μL PC solution was placed onto the coupon using a gas tight glass syringe, ensuring that the entire surface was coated but not spilling over the sides of the coupon. The coupons were initially air dried and then cured at 70° C. for 16 hours. They were then sent for gamma irradiation at <25 KGy. The resulting PC coating thickness was close to that of the stent and thick enough to accommodate the desired loaded drug dose, as graphically represented in FIG. 9A-B. FIG. 9A-B is a top and side view of a coated stainless steel coupon 30, having a PC-coating 20 on a electropolished stainless steel disc.
In these experiments, beneficial agents were loaded onto coupons and elution profiles examined. In general, the procedure is as follows. Twelve PC-coated coupons were loaded with each drug. The solutions of the drugs were usually 5.0 mg/mL in 100% ethanol and were filtered with a 0.45 μm filter prior to use.
The coupons were weighed before loading with the drug solution. To load 100 μg of drug, 20 μL of solution was placed (e.g., pipetted) on the center of the PC coated side of the coupon. The coupon was placed in a vial for 30 minutes with the lid closed to allow the drug to penetrate the coating. The lid was removed and the coupon was allowed to dry for an additional 90 minutes. To ensure that the coupon was completely dry, the coupon was weighed, and after 15 minutes the coupon was weighed a third time. When two weightings of the coupon were the same, the coupon was considered dry. The loaded, dry coupons were stored in a refrigerator protected from light.
Six coated coupons of each drug were used for the elution experiments. The coupons were individually placed, coating side up, in small metal cups to hold the coupon and to allow movement to a new vial at each time point. The coupons were usually placed in a vial containing 10 mL of pH 7.4 phosphate buffered saline. The vials were stored in an orbital shaker, with horizontal shaking of 100 rpm, at 37° C. for at least 30 minutes before insertion of a coupon to allow the solution to equilibrate at the desired temperature. After the desired time had lapsed, the coupon holder was lifted and allowed to drain. It was then placed into a pre-warmed vial corresponding to the next time point. This procedure continued until the predetermined time had elapsed. At that point, the coupons went through a drug extraction step as outlined earlier. The amount of drug in the elution samples was determined by HPLC.

The nature of series [6]: Stability of drug on PC-coated stents after ETO sterilization (HPLC). The series is classed as physicochemical. Here is the method:
In these experiments, beneficial agents were loaded onto stents and the stability of the two drugs was examined. In general, the procedure was as follows. Multiple PC-coated stents were loaded with each drug combination from solution. The solutions of the drugs were usually in the range of 2-20 mg/mL of zotarolimus and 10.0 mg/mL dexamethasone in 100% ethanol, with ˜10% PC1036 added to the solution to enhance film formation.
The stents were weighed before loading with the drug solution. To load approximately […] of each drug, a solution with equal amounts of zotarolimus and dexamethasone was sprayed onto the stent in a controlled fashion. The stent was allowed to dry before the stents were re-weighed to determine total drug load. The loaded, dry stents were stored in a refrigerator and were protected from light.
After drug loading, stents were crimped onto catheter balloons and packaged into medical product Tyvek pouches for ETO (ethylene oxide) sterilization. The ETO sterilization process is standard in the medical device industry to ensure product safety. […]
For each drug, multiple stents were used to evaluate the purity and stability of the drug loaded by the above procedure. […] The concentration and the presence of degradant-related impurities of the drug in the extraction solution were analyzed by HPLC.

A short description of series [7]: Pig model, zotarolimus concentrations in tissues after ZoMaxx stents. The series is classed as in vivo. The following applies: eluted from ZoMaxx stents, FIG. 25.
Where [8] appears, read: alone, in the absence of zotarolimus.

Consider `CO[C@H]1C[C@@H]2CC[C@@H](C)[C@@](O)(O2)C(=O)C(=O)N2CCCC[C@H]2C(=O)O[C@H]([C@H](C)C[C@@H]2CC[C@H](n3ncnn3)[C@H](OC)C2)CC(=O)[C@H](C)/C=C(\C)[C@@H](O)[C@@H](OC)C(=O)[C@H](C)C[C@H](C)/C=C/C=C/C=C/1C` (single isomer, unassigned; less polar) [Example 1, 42-Epi-(tetrazolyl)-rapamycin (less polar isomer)], for which the “terminal elimination half-life (t1/2) compared to rapamycin” value in series [1] is recorded as “substantially shorter”.

`CC(=O)O[C@H]1C(=O)[C@@]2(C)[C@H]([C@H](OC(=O)c3ccccc3)[C@]3(O)C[C@H](OC(=O)[C@H](O)[C@@H](NC(=O)c4ccccc4)c4ccccc4)C(C)=C1C3(C)C)[C@]1(OC(C)=O)CO[C@@H]1C[C@@H]2O` [Paclitaxel]: in series [2], the “transfer coefficient (P divided by S), order” value is on record as “zotarolimus>>paclitaxel>>rapamycin>dexamethasone”. Besides, the “Aqueous solubility, increasing order” value in series [3] was “paclitaxel, zotarolimus, rapamycin, and dexamethasone (crystalline)”.

In the case of `CO[C@H]1C[C@@H]2CC[C@@H](C)[C@@](O)(O2)C(=O)C(=O)N2CCCC[C@H]2C(=O)O[C@H]([C@H](C)C[C@@H]2CC[C@@H](O)[C@H](OC)C2)CC(=O)[C@H](C)/C=C(\C)[C@@H](O)[C@@H](OC)C(=O)[C@H](C)C[C@H](C)/C=C/C=C/C=C/1C` [Rapamycin], in series [4], the “LogP Values” is reported as more than 4.5. In addition, the “transfer coefficient (P divided by S), order” value in series [2] is “zotarolimus>>paclitaxel>>rapamycin>dexamethasone”. For the same compound, in series [2] (shake-flask, FIG. 20), the “lipophilicity (partition coefficient octanol/water)” value is recorded as “most lipophilic compounds in the group tested”. Further, the “Aqueous solubility, increasing order” value in series [3] is “paclitaxel, zotarolimus, rapamycin, and dexamethasone (crystalline)”.

Regarding `CCCCN(CCCC)C(=O)CN1C[C@H](c2ccc3c(c2)OCO3)[C@@H](C(=O)O)[C@@H]1c1ccc(OC)cc1` [ABT-627, atrasentan], the results for the “amount released from the coupon” value in series [5] (setting [8]) and in series [5] (in the presence of zotarolimus) were 50% and “less than 10%”, respectively.

As for `C[C@@H]1C[C@H]2[C@@H]3CCC4=CC(=O)C=C[C@]4(C)[C@@]3(F)[C@@H](O)C[C@]2(C)[C@@]1(O)C(=O)CO` [Dexamethasone], in series [4], the “LogP Values” is reported as ~1.9–2.2. The “amount remaining on the coupon” value is given as approximately 70% in series [5] (coupon containing dexamethasone and zotarolimus); 25% in series [5] (no zotarolimus present). The “Aqueous solubility, increasing order” value in series [3] was “paclitaxel, zotarolimus, rapamycin, and dexamethasone (crystalline)”. Further, the “degradation in the ETO sterilization environment” value in series [6] (dexamethasone-only coating) is on record as “degraded”; in series [6] (loaded in combination with zotarolimus, 1-to-1 ratio) it was “did not degrade”.

Turning to “3 S,6R,7E,9R,10R,12R,14S,15E,17E,19E,21S, 23S,26R,27R,34aS)-9,10,12,13,14,21,22,23,24,25,26,27,32,33,34,34a-Hexadecahydro-9,27-dihydroxy-3-[(1R)-2-[(1S,3R,4R)-3-methoxy-4-tetrazol-1-yl)cyclohexyl]-1-methylethyl]-10,21-dimethoxy-6,8,12,14,20,26-hexamethyl-23,27-epoxy-3H-pyrido[2,1-c][1,4]oxaazacyclohentriacontine-1,5,11,28,29(4H,6H,31H)-pentone [Zotarolimus]”, the “concentration in arterial tissue adjacent to the stent placement” value in series [7] (all periods out to 28 days) is given as “substantial concentrations”. Also, the “concentration in distal, unstented and subjacent myocardium and unstented and distal coronary arteries” value in series [7] (throughout 28 days) was “therapeutically significant concentrations”. In addition, the “LogP Values” in series [4] was more than 4.5. Also, the “transfer coefficient (P divided by S), order” value in series [2] is given as “zotarolimus>>paclitaxel>>rapamycin>dexamethasone”. Besides, in series [2] (shake-flask, FIG. 20), the “lipophilicity (partition coefficient octanol/water)” value was “most lipophilic of all DES drugs tested” and the “lipophilicity relative to rapamycin” value was “more than two times as lipophilic as rapamycin”.

Consider “40-epi-N-[2′-pyridone]-rapamycin [Example 2-pyridone]”, for which the t1/2 in series [1] (terminal elimination half-life) worked out at 2.8 h.

Turning to `OCCN(CCO)c1nc(N2CCCCC2)c2nc(N(CCO)CCO)nc(N3CCCCC3)c2n1` [Dipyridamole], the entries for the “amount released from the coupon” value in series [5] (setting [8]) and in series [5] (in the presence of zotarolimus) were approximately 90% and “about 52%”, respectively.
